From patent US20220332758A1, “PEPTIDE-BASED COMPOSITIONS AND METHODS FOR TREATING ALZHEIMER'S DISEASE” (Board of Regents, The Universityof Texas System, priority 2019, published 2022) come the findings set out here.

One data set has as its target 20S proteasome (Homo sapiens, UniProt P25787+P60900). Nature of the data set: AFM imaging of gate conformers of 20S proteasomes. Also on record: purified from erythrocytes; purchased Boston Biochem, Inc. or Enzo Life Sciences, Inc; host or cells: human erythrocytes. To be noted: 1 μM. Here is the method: Atomic Force Microscopy (AFM) Imaging. Single molecules of 20S proteasomes were imaged in tapping (oscillating) mode in liquid, with a scanner E of the Multimode Nanoscope IIIa (Bruker Inc., Santa Barbara, Calif.). The proteasomes were electrostatically attached to a muscovite mica substrate, covered with imaging buffer (5 mM Tris/HCl, pH 7) and scanned using cantilevers with the spring constant of 0.35 N/m from the SNL (Sharp Nitride Lever) probes (Bruker Inc., Santa Barbara, Calif.) tuned to 9-10 kHz. The amplitude set-point in the range of 1.5-2.0V, drive voltage of 300-500 mV and 3.05 Hz scanning rate were used. Scans of 1 μm^2 fields (512×512 pixels) were collected in height-mode. The images of fields typically contained several dozens of top-view (“standing”) 20S proteasome particles. The gate status was deduced from a profile of raw height values of pixels measured by a probe scanning across the single proteasome particles. In short, under the employed scanning conditions the proteasome a face with the central gate area was completely rendered by a six-pixel (11-12 nm) scan-line fragment. Numerical values of the height of particles of raw (after standard flattening) images were collected with a practical vertical resolution reaching 1 Å. […] The “events” of gate opening/closing were analysed for scans of distinct particles as well as multiple scans of the same particles.

For data set [1], the target named is T1, purified human 26S proteasome (Homo sapiens, UniProt P25787+P60900).
T1 construct: purchased Boston Biochemicals (Boston Biochem)
In words: In-gel overlay activity on non-denaturing gel, 26S proteasome. To be noted: 1 microM, 15 min, 100 microM Suc-LLVY-MCA. It is filed as biochemical. Here is the method:
Purified human 20S and 26S proteasomes were separated on non-denaturing polyacrylamide gel. The gel was overlayed with reaction buffer containing 100 microM fluorogenic peptide substrate Suc-LLVY-MCA (SEQ ID NO: 14) and 1% of vehicle solvent (DMSO) or the substrate and 1 microM Tat1 8,9 TOD. The gel was photographed after 15 min of incubation and then stained for the total protein content with Coomassie Brilliant Blue, and photographed. […] The protein content was the same for the control and Tat-overlayed sets. The activities of both 26S and 20S are enhanced by Tat1 8,9 TOD. The enhanced activity of 26S was not the result of Tat1 8,9 TOD—induced breaking of the 26S assembly into its components (19S and 20S) and activation of the released 20S catalytic core that still remains in the gel together with the whole 26S assembly. […] Traces of the 20S in both control 26S preparation and preparation pre-incubated with Tat1 8,9 TOD.

The subject of data set [2] is APP, BACE1 and Aβ42 levels. Nature of the data set: Immunoblot of APP and BACE1 and Aβ42 Elisa in hAPP(J20) mice. It is filed as in vivo, mouse. To be noted: 14 days treatment.
Data set [3] addresses T2, proteasome activity in CNS of non-transgenic mice (Mus musculus, UniProt P49722+Q9QUM9).
T2 construct: from tissue; host or cells: CNS of non-transgenic mice
In words: Proteasome activity in CNS of mice after IP injection. Format: in vivo. Here is the method:
Plate-based proteasome activity assay. Samples were homogenized by pestle in 100 μL chilled proteasome buffer (50 mM Tris, 5 mM MgCl2, 1 mM DTT, pH 7.4, vortexed and then centrifuged at 21,000 g at 4° C. for 15 minutes and supernatant transferred. Protein content was recorded by Bradford assay and samples diluted as appropriate. In a black 96-well plate, 10 μL of samples were added to 80 μL proteasome buffer supplemented with addition of 5 mM ATP for measuring 26S proteasome activity. Finally, 50 μM Suc-LLVY-AMC fluorogenic substrate in 10 μL proteasome buffer was added to each well to measure chymotrypsin-like activity. The plate was incubated at 37° C. in a SpectrumMax M2 plate reader for four hours with fluorescence measured every 10 minutes with 355 nm excitation and reading 460 nm emission. Total proteasome activity per sample was defined as the gradient of the linear trendline over this incubation period.

The structures appear in SMILES notation.

With `N=C(N)NCCCC(NC(=O)CN)C(=O)NC(CCCCN)C(=O)NC(CCCCN)C(=O)NC(CCCNC(=N)N)C(=O)NC(CCCNC(=N)N)C(=O)NC(CCC(N)=O)C(=O)N1Cc2ccccc2C[C@H]1C(=O)N1C(C(=O)NC(CCCNC(N)N)C(=O)N2CCCC2C(=O)NC(CO)C(=O)O)CC2CCCCC21` (stereo partly shown) [(5), GRKKRRQ-TOD-RPS], on 20S proteasome, the intermediate conformers is 27%. Also, in data set [1], the “26S activity in gel overlay” value is reported as “enhanced”. For the same molecule, in data set [2], the APP protein levels result is “decline in both APP and BACE1 protein levels”; the “protein levels of BACE1” value is given as “significantly reduces”; the “protein levels of β-amyloid” value is “significantly reduces”. The “proteasome activity in the central nervous system” value in data set [3] (24 hours after intraperitoneal injection) is recorded as “significantly enhances proteasome activity”. The blood-brain-barrier penetration result in data set [3] (mice, IP injection) was “stably penetrates the blood-brain-barrier”.
